Assay results reported in the C3SDB collision cross section collection.
Values joined by “and” are separate entries in the source; they are usually repeats but may differ in a detail not shown here. Identical values can stand only once.

Legend:
[1] = instrument: DT, stepped-field
[2] = [M+H]+; instrument: DT; single field, calibrated with Agilent tune mix (Agilent)

Row | Structure (SMILES) | collision cross section (N2) ([1]; [M+Na]+) | also measured
1 | CCCCC/C=C\C/C=C\CCCCCCCCCC(=O)O[C@H](COC(=O)CCCCCCC/C=C\CCCCCCCCC)COP(=O)(O)OCCN [PE(39:3)] |  | collision cross section (N2) ([1]; [M+K]+): 293.4 Å²
2 | CC/C=C\C/C=C\C/C=C\C/C=C\C/C=C\CCCC(=O)O[C@H](COC(=O)CCCCCCCCC/C=C\C/C=C\CCCCC)COP(=O)(O)OCCN [PE(40:7)] | 290.8 Å² | 
3 | CCCCC/C=C\C/C=C\C/C=C\C/C=C\CCCC(=O)O[C@H](COC(=O)CCCCCCCCCCCCCCC)COP(=O)(O)OC[C@H](N)C(=O)O [PS(36:4)] | 287.8 Å² | 
4 | CCCCCCC/C=C\CCCCCCCC(=O)O[C@H](COC(=O)CCCCCCCCC/C=C\CCCCCCCC)COP(=O)(O)OC[C@H](N)C(=O)O [PS(37:2)] |  | collision cross section (N2) ([1]; [M+K]+): 293 Å²
5 | CC/C=C\C/C=C\C/C=C\C/C=C\C/C=C\C/C=C\CCC(=O)OC[C@H](COP(=O)(O)OC[C@H](N)C(=O)O)OC(=O)CCCCCCC/C=C\CCCCCCC [PS(39:7)] | 293.1 Å² | 
6 | CC/C=C\C/C=C\C/C=C\C/C=C\C/C=C\C/C=C\CCC(=O)OC[C@H](COP(=O)(O)OC[C@H](N)C(=O)O)OC(=O)CCCCCCC/C=C\CCCCCCCCC [PS(41:7)] | 299.2 Å² | 
7 | CC/C=C\C/C=C\C/C=C\C/C=C\C/C=C\CCCC(=O)OC[C@H](COP(=O)(O)OC[C@H](N)C(=O)O)OC(=O)CCCCCCCCCCC/C=C\C/C=C\CCCCC [PS(42:7)] | 304.7 Å² | 
8 | CCC=CCC=CCC=CCC=CCC=CCC=CCC(=O)OC[C@H](COP(=O)(O)OC[C@H](N)C(=O)O)OC(=O)CC=CCC=CCC=CCC=CCC=CCC=CCC [PS(42:12)] | 293.7 Å² | 
9 | CC/C=C\C/C=C\C/C=C\C/C=C\C/C=C\C/C=C\CCC(=O)OC[C@H](COP(=O)(O)OC[C@H](N)C(=O)O)OC(=O)CCCCCCCCC/C=C\CCCCCCCCCC [PS(44:7)] | 311.8 Å² | 
10 | CCCCC/C=C\C/C=C\C/C=C\C/C=C\CCCCCC(=O)OC[C@H](COP(=O)(O)OC[C@H](N)C(=O)O)OC(=O)CCCCC/C=C\C/C=C\C/C=C\C/C=C\CCCCC [PS(44:8)] | 306.8 Å² | 
11 | CC/C=C\C/C=C\C/C=C\C/C=C\C/C=C\C/C=C\CCC(=O)OC[C@H](COP(=O)(O)OC[C@H](N)C(=O)O)OC(=O)CC/C=C\C/C=C\C/C=C\C/C=C\C/C=C\C/C=C\CC [PS(44:12)] | 299.7 Å² | 
12 | CCCCCCCCCCC=CCC=CCC=CCC=CCC(=O)OC[C@H](COP(=O)(O)OC[C@H](N)C(=O)O)OC(=O)CC=CCC=CCC=CCC=CCCCCCCCCCC [PS(46:8)] | 313.2 Å² | 
13 | OC[C@H]1OC(OC[C@H]2OC(O[C@]3(CO)O[C@H](CO)[C@@H](O)[C@@H]3O)[C@H](O)[C@@H](O)[C@@H]2O)[C@H](O)[C@@H](O)[C@H]1O (some centres not stated) [Raffinose] | 210.7 Å² | collision cross section (N2) ([1]; [M+K]+): 212.7 Å²; collision cross section (N2) ([1]; [M+Rb]+): 218.7 Å² and 229.7 Å²
14 | CCCCCC[N+](CCCCCC)(CCCCCC)CCCCCC [TAA6] |  | collision cross section (N2) ([1]; [M]+): 213.5 Å²
15 | CCCCCCCC[N+](CCCCCCCC)(CCCCCCCC)CCCCCCCC [TAA8] |  | collision cross section (N2) ([1]; [M]+): 256.6 Å²
16 | CCCCCCCCCC[N+](CCCCCCCCCC)(CCCCCCCCCC)CCCCCCCCCC [TAA10] |  | collision cross section (N2) ([1]; [M]+): 293.5 Å²
17 | CCCCCCCCCCCCCCCC[N+](CCCCCCCCCCCCCCCC)(CCCCCCCCCCCCCCCC)CCCCCCCCCCCCCCCC [TAA16] |  | collision cross section (N2) ([1]; [M]+): 361.5 Å²
18 | CC(C)[C@H](N)C(=O)N[C@@H](Cc1ccccc1)C(=O)N[C@@H](C)C(=O)N[C@@H](CC(=O)O)C(=O)N[C@@H](Cc1ccc(O)cc1)C(=O)N[C@@H](CCC(=O)O)C(=O)N[C@@H](CCC(=O)O)C(=O)N[C@@H](Cc1ccc(O)cc1)C(=O)N[C@H](C(=O)N[C@@H](CCCCN)C(=O)O)C(C)C [VFADYEEYVK] |  | collision cross section (N2) ([1]; [M+H]+): 366.4 Å²
19 | CCC(C)[C@H](NC(=O)[C@@H](N)C(C)C)C(=O)N[C@@H](Cc1ccccc1)C(=O)N[C@@H](CC(C)C)C(=O)N[C@@H](CCC(=O)O)C(=O)N[C@@H](CC(N)=O)C(=O)N[C@@H](Cc1ccc(O)cc1)C(=O)N[C@@H](CCCNC(=N)N)C(=O)O (some centres not stated) [VIFLENYR] |  | collision cross section (N2) ([1]; [M+H]+): 318.3 Å²
20 | CC(C)C[C@H](NC(=O)[C@H](C)NC(=O)[C@H](CO)NC(=O)[C@@H](N)C(C)C)C(=O)N[C@@H](Cc1ccc(O)cc1)C(=O)N[C@@H](CCCCN)C(=O)O [VSALYK] |  | collision cross section (N2) ([1]; [M+H]+): 261.8 Å² and 254 Å²
21 | CC(C)C[C@H](NC(=O)[C@H](CO)NC(=O)[C@@H](N)C(C)C)C(=O)N[C@@H](C)C(=O)N[C@@H](CCC(=O)O)C(=O)N[C@@H](CCCCN)C(=O)O [VSLAEK] |  | collision cross section (N2) ([1]; [M+H]+): 249 Å²

More lines, main results first:

Row | collision cross section (N2) ([1]; [M+Na]+) | Structure (SMILES) | also measured
22 | 292.8 Å² | CCCCC/C=C\C/C=C\C/C=C\C/C=C\CCCCCC(=O)O[C@H](COC(=O)CCCCCCCCCCCCCCCC)COP(=O)(O)OCCN [PE(39:4)] | 
23 | 275.9 Å² | CC/C=C\C/C=C\C/C=C\C/C=C\CCCCC(=O)O[C@H](COCCCCCCCCCCCCCCCC)COP(=O)(O)OCCN [PE(o34:4)] | 
24 | 311.5 Å² | CCCCC/C=C\C/C=C\C/C=C\C/C=C\CCCCCC(=O)O[C@H](COC(=O)CCCCCCCCC/C=C\CCCCCCCCCC)COP(=O)(O)OC[C@H](N)C(=O)O [PS(44:5)] | 
25 | 294.8 Å² | CCCCCCCCCCCCC=CC[C@@H](O)[C@H](COP(=O)([O-])OCC[N+](C)(C)C)NC(=O)CCCCCCCCCCCCCCCCCC [SM(37:1)] | collision cross section (N2) [2]: 290.8 Å²
26 | 301.6 Å² | CCCCCCCCCCCCC=CC[C@@H](O)[C@H](COP(=O)([O-])OCC[N+](C)(C)C)NC(=O)CCCCCCCCCCCCCCCCCCCC [SM(39:1)] | collision cross section (N2) [2]: 297.4 Å²
27 | 315.1 Å² | CCCCCCCCCCCCC=CC[C@@H](O)[C@H](COP(=O)([O-])OCC[N+](C)(C)C)NC(=O)CCCCCCCCCCCCCCCCCCCCCCCCC [SM(44:1)] | 
28 | 312 Å² | CCCCCCCCCCCCC=CC[C@@H](O)[C@H](COP(=O)([O-])OCC[N+](C)(C)C)NC(=O)CC=CCC=CCCCCCCCCCCCCCCCCCCC [SM(44:3)] | 
